Data set [1] is described as follows: Fluorescence lifetime in water:glycerol mixtures of varying viscosities. The data set is classed as physicochemical. As to conditions: 590 nm, 20° C. The method, then: The BODIPY unit of COE-BYs are sensitive to the viscosity of its environment. As an example, COE-BYPhMe was added to mixtures of water and glycerol at various ratios. The viscosity of the local environment has the most significant effect on its emission intensity and emission lifetime. The plot of log τ (fluorescence lifetime) versus log η (solvent viscosity) is fitted by a straight line.
We examined the sensitivity of COE-BYs to changes in viscosity in solution by using different glycerol and water mixtures. The viscosities of the solutions were increased through increases of the glycerol fraction. Of interest was the relationship between the viscosity (η) and the amplitude-weighted average emission lifetime (τw), which is defined by
Each individual lifetime component Tr is normalized to the corresponding amplitude (Ai) derived from fitting the emission decay to a multiexponential model, where p is the total number of exponents (1 or 2). […] It is known that increases in environmental viscosity restricts the rotation of the phenyl rings surrounding the BODIPY unit, which diminishes non-radiative decay pathways of the excited state, resulting in longer fluorescence lifetimes. […] Due to the low emission, we could not accurately extract emission lifetimes from the fluorescence decays of COE-BYPhCN and COE-BYPhNO.

Data set [2] is described as follows: Analyte viscosity sensing: fluorescence lifetime in the presence of different analytes. It is filed as physicochemical. As to conditions: 0.5 μM. The method, then: Solutions of bovine serum albumin (BSA), high density lipoprotein (HDL), Liposomes of POPC:POPG 85:15 (SUVs) and Liposomes of POPC:POPG:Cholesterol 42.5:7.5:50 (SUV CHOL) were prepared at final concentrations of 1 mg/mL in PBS. COE-BYs were prepared at 1 μM in PBS. 150 μL of analyte and 150 μL of COE-BYs were mixed and incubated for 1 hour at 37C. Fluorescent emission profiles were measured with excitation at 545 nm.

Data set [3] deals with HeLa cells. Description: Time-dependent colocalization with organelle probes, confocal microscopy. It is filed as cell-based. The method, then:
(b) Confocal image of A549 cells stained with 1 μM COE-BYPhOC4. Confocal images of (c) A549 and (d) HeLa cells. Cells were prestained with COE-BYPhOC4 (red) for 4 hours and then stained with commercial plasma membrane dye CellMask Deep Red (blue and green, respectively) for 5 min. (e) Confocal images for time-dependent colocalization experiments. HeLa cells were stained with 1 μM COE-BYPhOC4 with different incubation times (2 h, 8 h, 24 h and 48 h). Cells were imaged in multiple channels to collect fluorescence signals from COE-BYPhOC4 and other commercial organelle dyes. Red: COE-BYPhOC4; the first column green: CellLight Early Endosome-GFP; the second column green: CellLight Late Endosome-GFP; the third column deep blue: CellLight Lysosomes-GFP; the fourth column sky blue: HCS LipidTOX™ Deep Red; the fifth column yellow: MitoTracker Deep Red. Scale bar: 5 μm.
Insights into the intracellular location of COE-BYPhOC4 at different time points were sought through colocalization experiments with a panel of common commercial organelle probes (CellLight Early Endosome-GFP, CellLight Late Endosome-GFP, CellLight Lysosomes-GFP, LipidTOX™ Deep Red, and MitoTracker Deep Red). To label the vesicles in the endocytic pathway with high specificity and avoid dye translocation associated with alkalinizing effects and equilibrium shifts after extended durations, we elected to use GFP-tagged markers that are definitive for each vesicle subtype, namely Rab5a, Rab7a, and Lamp-1 for early endosomes, late endosomes, and lysosomes respectively. […] Subsequently at 8 hours, the highest overlay can be observed from COEs and the late endosome marker. Prolonged incubation beyond this point further increased the degree of colocalization, from 0.73 at 8 hours to 0.95 at 48 h.

Data set [4] deals with A549 cells. The experiment in a line: Uptake after pretreatment with endocytic inhibitors, flow cytometry. The data set is classed as cell-based. As to conditions: 1 μM dye, 3 h. The method, then: (§1) To further understand the internalization of COE-BYPhOC4, A549 and HeLa cells were pretreated with endocytic inhibitors including pharmacological treatments genistein (caveolae-dependent), chlorpromazine (clathrin-dependent) and low temperature (energy-dependent). Cells were then stained by treatment with 1 μM COE-BYPhOC4 and the endocytosis inhibition efficiency was characterized by flow cytometry and fluorescence confocal imaging. […] The confocal images in FIG. 13C provide additional confirmation of this endocytosis pathway. Fluorescence signals are only observed on the plasma membranes in the chlorpromazine pretreated group, while COE-BYPhOC4 readily underwent endocytosis and appeared as red vesicular puncta in the other three groups. Successful plasma membrane staining similar to FIG. 12A also provides evidence of insertion into the membrane prior to endocytosis and subsequent trafficking together with other lipid molecules, as opposed to being directly engulfed within intracellular vesicles. This feature enables the dye to follow the endosomal pathway throughout the maturation process beginning from the plasma membrane, as opposed to commonly employed pH-dependent methods to control accumulation within vesicle subtypes.

Data set [5] has as its system HeLa cells. Described as above. The data set is classed as cell-based. As to conditions: 1 μM dye, 3 h. On the procedure: as §1
In data set [6] the test system is HeLa cells. The experiment in a line: Membrane tension imaging during endocytosis, 2P-FLIM. It is filed as cell-based. The method, then: We thus stained HeLa cells with COE-BYPhOC4 for different lengths of time and captured 2P-FLIM images of the cell state at specific intervals. For these studies, we correlated the time-dependent colocalization experiments with 2P-FLIM data to link τw with the identity of the vesicles. […] Time dependent colocalization with Rab5a allowed us a means of assigning the identities of the vesicles. At 2 hours, the blue and green vesicles in FLIM image were identified as early endosomes. Upon increasing staining time to 4 h, all COE-BYPhOC4 entered the cells with a further increase in τw, leading to a main yellow color. […] As previously analyzed from the colocalization images in FIG. 12, all the COEs resided exclusively within late endosomes at this point in time. […] This observation is potentially reflective of the different domains in endosomes.

The test system of data set [7] is A549 cells. Description: Confocal microscopy of stained cells. The data set is classed as cell-based. The method, then: A549 cells were stained for 5 minutes with 0.75 μM COE-BYPhMe (red channel) before imaging and Hoechst 33342 (blue channel).
Our next objective was to study the cellular distribution of COE-BYPhOC4 series at different time points by conventional confocal microscopy.

Results on one compound are retold here after US20260210856A1, “CONJUGATED OLIGOELECTROLYTES WITH BORON-DIPYRROMETHENE CORES AND METHODS THEREOF” (National University of Singapore, priority 2022, published 2026).

Molecules are shown by their SMILES.

With `CCCCOc1ccc(C2=C3C(C)=C(c4ccc(/C=C/c5cc(OCCCCCC[N+](C)(C)C)c(OCCCCCC[N+](C)(C)C)c(OCCCCCC[N+](C)(C)C)c5)cc4)C(C)=[N+]3[B-](F)(F)n3c(C)c(-c4ccc(/C=C/c5cc(OCCCCCC[N+](C)(C)C)c(OCCCCCC[N+](C)(C)C)c(OCCCCCC[N+](C)(C)C)c5)cc4)c(C)c32)cc1.[I-].[I-].[I-].[I-].[I-].[I-]` [COE-BYPhOC4], the “amplitude-weighted average emission lifetime τw” value in data set [1] (solution viscosity 22.5 cP) came to 0.5 ns; in data set [1] (solution viscosity 939 cP), 1.2 ns. In addition, the Lifetime in data set [2] (analyte HDL 0.5 mg/mL) came to 4.02 ± 0.01 ns; in data set [2] (analyte PBS), 0.56 ± 0.01 ns; in data set [2] (analyte SUV (POPC:POPG 85:15) 0.5 mg/mL) it was 1.99 ± 0.01 ns; in data set [2] (analyte SUV CHOL (POPC:POPG:Cholesterol 42.5:7.5:50) 0.5 mg/mL) it was 2.18 ± 0.01 ns. Besides, the “degree of colocalization with late endosome marker” value was found to be 0.73 in the data set with HeLa cells [3] (1 μM, 8 hours) and 0.95 in the data set on HeLa cells [3] (1 μM, 48 h). For the same compound, the “Pearson's correlation coefficient value (R) relative to GFP-tagged Rab5a (early endosome)” value in the data set on HeLa cells [3] (1 μM, incubation 2 h) stood at 0.71. For the same compound, the “colocalization with lipid droplets and mitochondria markers” value with HeLa cells [3] (all timepoints) was “poor colocalization with lipid droplets and mitochondria markers at all timepoints”. Besides, the “dye fluorescence intensity relative to the untreated group” value is 14% in the data set on A549 cells [4] (A549, chlorpromazine pretreatment); 95% with A549 cells [4] (A549, genistein pretreatment); 21% in the data set on HeLa cells [5] (chlorpromazine pretreatment); 92% with HeLa cells [5] (genistein pretreatment). Further, the τw is 2.7-3.0 ns with HeLa cells [6] (8 to 24 h, red-orange vesicles); “≈ 1.5 ns” in the data set with HeLa cells [6] (0.5 h, plasma membranes); “≈ 1.0 ns” with HeLa cells [6] (0.5 h, regions beginning to be internalized); 2.0-2.4 ns in the data set with HeLa cells [6] (vesicles taken up earlier (green)). The staining pattern entry in the data set on A549 cells [7] (A549, 1 μM, 10 minutes) is “strong fluorescence signals were observed on the plasma membranes”. In addition, the location of emission entry in the data set on A549 cells [7] (incubation for 4 hours) is reported as “predominantly intracellular emission”.
